Here are results for 7 compounds from ChEMBL document CHEMBL1151463, “Human immunodeficiency virus types 1 and 2 exhibit comparable sensitivities to Zidovudine and other nucleoside analog inhibitors in vitro” (Antimicrob Agents Chemother, 2008).

Active and inactive are the calls of the source. No cut-off for these calls is given here.

The subject of experiment [1] is Human immunodeficiency virus 1. The experiment is described as follows: Antiviral activity against wild type HIV1 NL4-3 produced from full length pR9deltaApa infected in human MAGIC-5A cells assessed as inhibition of Lac+ foci expression after 40 hrs. It counts as functional, organism-based. The conditions noted are these: Human immunodeficiency virus 1, NL4-3, MAGIC-5A.

Experiment [2] has as its system Human immunodeficiency virus 1. The experiment is described as follows: Antiviral activity against multinucleoside-resistant HIV1 NL4-3 harboring A62V, V75I, F77L, F116Y, Q151M mutation in viral reverse transcriptase infected in human MAGIC-5A cells assessed as inhibition of Lac+ foci expression after 40 hrs. It counts as functional, organism-based. To be noted: Human immunodeficiency virus 1, NL4-3, MAGIC-5A.

Experiment [3] relates to Human immunodeficiency virus 1. Kind of experiment: Selectivity ratio of EC50 for multinucleoside-resistant HIV1 NL4-3 harboring A62V, V75I, F77L, F116Y, Q151M mutation in viral reverse transcriptase to EC50 for wild type HIV1 NL4-3. It counts as functional.
The test system of experiment [4] is Human immunodeficiency virus 2. The experiment is described as follows: Antiviral activity against wild type HIV2 ROD produced from full length pROD9 infected in human MAGIC-5A cells assessed as inhibition of Lac+ foci expression after 40 hrs. It counts as functional, organism-based. To be noted: for EC50: Human immunodeficiency virus 2, ISOLATE ROD.
Experiment [5] relates to Human immunodeficiency virus 2. Kind of experiment: Antiviral activity against recombinant HIV2 ROD carrying HIV2 UC2 reverse transcriptase infected in human MAGIC-5A cells assessed as inhibition of Lac+ foci expression after 40 hrs. It counts as functional, organism-based. To be noted: Human immunodeficiency virus 2, ISOLATE ROD.
Experiment [6] concerns Human immunodeficiency virus 2. Kind of experiment: Antiviral activity against wild type HIV2 CDC310319 infected in human MAGIC-5A cells assessed as inhibition of Lac+ foci expression after 40 hrs. It counts as functional, organism-based.

For orientation: EC50 means the concentration that produces a half-maximal response. For the compound `C[C@H](Cn1cnc2c(N)ncnc21)OCP(=O)(O)O` [TENOFOVIR ANHYDROUS], the EC50 in experiment [1] was 7.2 µM; in experiment [2], 26 µM; in experiment [4], 7.2 µM. Moreover, the “Ratio EC50” value in experiment [3] is 4.

In the case of `Nc1nc(NC2CC2)c2ncn([C@H]3C=C[C@@H](CO)C3)c2n1` [ABACAVIR], the concentration giving a half-maximal response (EC50) in experiment [1] is 7.6 µM; in experiment [2], 40 µM; in experiment [4], 7.2 µM. The “Ratio EC50” value in experiment [3] came out at 5.

With `Cc1cn([C@H]2C[C@H](N=[N+]=[N-])[C@@H](CO)O2)c(=O)[nH]c1=O` [ZIDOVUDINE], the EC50 in experiment [5] is 0.071 µM; in experiment [1], 0.16 µM; in experiment [2] it was 7 µM; in experiment [4], 0.12 µM. Moreover, in experiment [3], the “Ratio EC50” value is 43. In experiment [4] (ISOLATE ROD), the Activity result was “Dose-dependent effect”. For the same compound, in experiment [6], the outcome was Active.

Take `Cc1cn([C@H]2C=C[C@@H](CO)O2)c(=O)[nH]c1=O` [STAVUDINE]: the EC50 in experiment [1] amounted to 5.5 µM; in experiment [2], 79 µM; in experiment [4], 7.1 µM. For the same compound, the “Ratio EC50” value in experiment [3] was determined as 14.

`O=c1[nH]cnc2c1ncn2[C@H]1CC[C@@H](CO)O1` [DIDANOSINE]: the EC50 in experiment [1] turned out to be 4.7 µM; in experiment [2], 45 µM; in experiment [4], 8 µM. Also, the “Ratio EC50” value in experiment [3] was determined as 10.

With `Nc1ccn([C@@H]2CS[C@H](CO)O2)c(=O)n1` [LAMIVUDINE], the values for the EC50 in experiment [1], in experiment [2] and in experiment [4] were 0.88 µM, 3.7 µM and 2 µM, respectively. Moreover, the “Ratio EC50” value in experiment [3] amounted to 4.

`Nc1nc(=O)n([C@@H]2CS[C@H](CO)O2)cc1F` [EMTRICITABINE]: the EC50 in experiment [1] worked out at 0.27 µM; in experiment [2], 0.79 µM; in experiment [4], 0.5 µM. The “Ratio EC50” value in experiment [3] is on record as 3.
